Data published in paper PMC8621570, “Mechanistic Studies of Antibiotic Adjuvants Reducing Kidney’s Bacterial Loads upon Systemic Monotherapy” (Pharmaceutics, 2021).
Where a SMILES comes first, the peptide text is derived from it. [ ]: non-standard residue; d: D form. The star is where a group is joined. Myristoyl = CCCCCCCCCCCCCC(=O)*; 12Ado = NCCCCCCCCCCCC(=O)O

Assays:
[1] = test system: 12 GNB strains; conditions: OD measurements, mean of 12 GNB strains, reference peptide; cited from earlier work
Excerpt: Table 1 Biophysical attributes of relevant lipopeptide analogs. | column: MIC (µM) / LB ^a Medium

[2] = light scattering in PBS; reference peptide; cited from earlier work
Excerpt: Table 1 Biophysical attributes of relevant lipopeptide analogs. | column: CAC (µM)

[3] = test system: washed human erythrocytes; assay type: cell-based; conditions: red cells of human, 3 h
Procedure: Peptide self-assembly was determined by static light scattering measurements as described. Hemolysis was determined by measuring hemoglobin leakage from washed human RBCs, as described. Minimal inhibitory concentration (MIC) was determined using the microdilution assay, as described. Bactericidal kinetics were determined by mixing bacteria with rifampin, OAC, or their combinations, as described. Data were obtained from three independent assays performed in duplicate.

[4] = % acetonitrile required for elution in reversed phase HPLC, C18 column; rounded to nearest whole number; reference peptide; cited from earlier work
Excerpt: Table 1 Biophysical attributes of relevant lipopeptide analogs. | column: H (%)

[5] = test system: E. coli 25922; assay type: cell-based, Escherichia coli; conditions: 25922, 24 h
Procedure: Sensitization to plasma components was assessed by mixing bacteria with serial two-fold OAC dilutions in 80% human plasma (Israel Blood Bank) or plasma from the specified species (Technion preclinical research authority or VetSource), as described. Data were obtained from three independent experiments.
Figure 3 Animal plasma antibacterial activities against E. coli 25922. (a) Dose-dependent reduction of colony forming units (CFU) as determined 24 h after exposure to C14(ω5)OOc10O in human plasma (80% final plasma concentration in PBS). Values represent the mean ± SD obtained from three individual plasma donors (mean inoculum was 1.6 ± 0.8 × 10^6 CFU/mL). (b) Time-kill kinetics determined upon E. coli exposure to 0, 2.5, 5, and 10 µM C14(ω5)OOc10O (from top to bottom, respectively). Values represent the mean ± SD obtained from two individual plasma samples, each subjected to two independent assays. Panels (c–f), respectively, show the OAC’s concentration-dependent activities in plasma samples obtained from pig, cat, sheep, and dog. The three dashed horizontal lines respectively represent the average CFU count of the vehicle control (upper line), the inoculum (middle line), and the limit of detection (lower line), i.e., log10 50 CFU/mL = 1.69. Green stars (*) denote lack of detectable CFU.

## CCCCCCCCCCCCCC(=O)N[C@@H](CCCCN)C(=O)N[C@@H](CCCCN)C(=O)NCCCCCCCCCCCC(=O)N[C@@H](CCCCN)C(N)=O [C14KKc12K] (Myristoyl-KK[12Ado]K-NH2)
[1]
  MIC, LB medium: 3 to 6 µM
[2]
  CAC, critical aggregation concentration: 20 ± 5 µM
[3]
  HC50, concentration causing 50% hemolysis compared to water: 12 ± 1 µM
[4]
  H, hydrophobicity: 55%
[5]
  MIC, human plasma: >20 µM
